Experimental data: patent US7888357B2, “Anti-inflammatory and protein kinase inhibitor compositions and related methods for downregulation of detrimental cellular responses and inhibition of cell death” (Northwestern University, priority 2001, dated 2011)

Legend:
protein kinase A (PKA) = target: T1, protein kinase A (PKA) (Bos taurus, UniProt P00517); assay: Reconstituted enzyme assay, PKA; format: biochemical, bovine; conditions: γ-[32P]-ATP, synthetic peptide substrate
T1 construct: bovine heart PKA from Promega; purchased Promega; host or cells: bovine heart
Method: [table] […] The rationale for using BV-2 cells in high throughput screening was the paucity of well-characterized human microglial cell lines, and the relevant activation responses and signaling pathways reflect those seen in human and rodent primary microglial cultures. Compounds were tested for their effects on NO accumulation in conditioned media of LPS-stimulated BV-2 cells by measurement of nitrite production by the Griess assay as a read-out for iNOS activity, as described previously. Stock solutions of compounds were prepared in dimethylsulfoxide (DMSO) or in water. When stock solutions were prepared in DMSO, control wells contained the same final concentration of DMSO as the compound-containing wells. […] Solutions of compounds for cell treatments were diluted to a 10× final concentration by dilution of stock solutions in αMEM media. […] Reconstituted enzyme assays were done as described s. The sources of protein kinases were: bovine heart PKA from Promega, rat brain PKC from Calbiochem, rat CaMKII from New England Biolabs, chicken gizzard MLCK prepared as described, and a p38 MAP kinase kit containing recombinant Xenopus p38-MAPK and its human substrate from Upstate Biotechnology. […]

BV-2 microglial cells = assay: Cell-based screen for inhibition of LPS-stimulated NO release (Griess assay); design: species or system murine; conditions: LPS-stimulated BV-2 cells, 24 hr, nitrite in conditioned media
Method: FIG. 1. Cell-based screen for inhibition of LPS-stimulated NO release. […] Inhibition is expressed as percent control, where the control is the NO accumulation from cells stimulated with LPS alone.
The rationale for using BV-2 cells in high throughput screening was the paucity of well-characterized human microglial cell lines, and the relevant activation responses and signaling pathways reflect those seen in human and rodent primary microglial cultures. Compounds were tested for their effects on NO accumulation in conditioned media of LPS-stimulated BV-2 cells by measurement of nitrite production by the Griess assay as a read-out for iNOS activity, as described previously. Stock solutions of compounds were prepared in dimethylsulfoxide (DMSO) or in water. When stock solutions were prepared in DMSO, control wells contained the same final concentration of DMSO as the compound-containing wells. […] Solutions of compounds for cell treatments were diluted to a 10× final concentration by dilution of stock solutions in αMEM media. The commercially available drugs tested were: compound 5 (KN93 from Alexis); compound 6 (pyrrolidinedithiocarbamate or PDTC from Sigma), compound 7 (SB203580 from Alexis Corporation), compound 8 (PD98059 from Alexis Corporation), and compound 9 (UO126 from Cell Signaling). […] Respectively, Western blots of cell lysates were done with the following antibodies: monoclonal anti-iNOS (1:1000 dilution, Transduction Labs); polyclonal anti-rat IL-1β (1:1000 dilution, R&D Systems, Inc.); monoclonal anti-glial fibrillary acidic protein (GFAP) (1:[…] dilution, Sigma); polyclonal anti-rat alioE (1:15,000 dilution) prepared as described; polyclonal anti-COX-2 (1:500 dilution) and monoclonal anti-phosphoATF2 (1:1000 dilution) from Santa Cruz Biotechnology, polyclonal anti-phosphoCREB (1:1000 dilution), and polyclonal anti-phosphop38 MAPK (1:1000 dilution). Reconstituted enzyme assays were done as described s. The sources of protein kinases were: bovine heart PKA from Promega, rat brain PKC from Calbiochem, rat CaMKII from New England Biolabs, chicken gizzard MLCK prepared as described, and a p38 MAP kinase kit containing recombinant Xenopus p38-MAPK and its human substrate from Upstate Biotechnology. The catalytic domains of these protein kinases retain a high level of amino acid sequence identity across mammalian species, consistent with the lack of documented major differences across species for the in vitro catalytic activity of a given kinase.
FIG. 4. Cell-based screen for functional effects of synthetic compounds on LPS-stimulated NO release from BV-2 cells. BV-2 cells were incubated for 24 hr with LPS (500 ng/ml) in the presence of increasing concentrations of: A) MW01-070C; B) MW01-026Z; C) MW01-118Z; D) MW01-119Z; E) MW01-051Z; F) MW01-160Z; G) MW01-196A; H) MW01-024Z; I) SB203580; J) PDTC; K) U0126; L) PD98059. The nitrite levels in conditioned media were determined. Inhibition is expressed as percentage of control values, where the control is the nitrite level in cells stimulated with LPS alone.
Compounds were tested for their effects on NO production by LPS-stimulated BV-2 cells as previously described [Mirzoeva, S., Koppal, T., Petrova, T. V., Lukas, T. J., Watterson, D. M., and Van Eldik, L. J. (1999) Brain Res. 844, 126-134]. The levels of nitrite, a stable NO metabolite, in conditioned media were determined by the Griess assay as previously described [Hu, J., Castets, F., Guevara, J. L., and Van Eldik, L. J. (1996) J. Biol. Chem. 271, 2543-2547]. Stock solutions of compounds were prepared in DMSO or in water. When stock solutions were prepared in DMSO, control wells contained the same final concentration of DMSO as the compound-containing wells. Solutions of compounds for cell treatments were diluted to a 10× final concentration by dilution of stock solutions of drugs in αMEM media.

In the case of N=c1cc2c(nn1CCCCCCCCCCC(=O)N1CCN(c3ncccn3)CC1)-c1ccccc1CC2 [MW01-070C], the IC50 (protein kinase A (PKA)) is reported as over 100 µM, the “inhibition of NO accumulation by activated glia” value (BV-2 microglial cells) is reported as “more effective” and the “inhibition of NO accumulation by activated glia” value (BV-2 microglial cells; listed as 1) is reported as “most active compound”.
